Data on 13 molecules can be found in patent US20230167118A1, “DEGRADATION OF BRUTON'S TYROSINE KINASE (BTK) BY CONJUGATION OF BTK INIDBITORS WITH E3 LIGASE LIGAND AND METHODS OF USE” (BEIGENE, LTD., priority 2020, published 2023).

SMILES strings stand for the structures.

For one assay, the system named is HEK-293 cells. Briefly: HEK-293 Cytotoxicity Assay (CellTiter-Glo). Conditions: Homo sapiens, HEK293, 72 h incubation, CellTiter-Glo luminescence. In kind it is cell-based. In a few lines: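 Four-parameter fit of % inhibition gives IC50, from CellTiter-Glo luminescent viability read-out. Cells exposed for 72 h to an 8-point, 4-fold series at 0.2% DMSO.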
Another assay addresses T1, BTK (Homo sapiens, UniProt Q06187).
T1 construct: High control=Cell group with added DMSO and without compound, indicating microplate readings without BTK degradation; endogenous in cells; host or cells: TMD-8 cells
Briefly: Cell Degradation: BTK degradation in TMD-8 cells, HTRF assay. Format: cell-based. The following applies: 6 h treatment, IC50 (DC50) of BTK degradation. In a few lines:
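BTK levels read by HTRF (665 vs 620 nm) in lysates of TMD-8 cells after 6 h compound exposure (eight doses, 6-fold steps, 0.2% DMSO). Percent degradation relative to controls; four-parameter curve fitting gave DC50, with Dmax the top degradation.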
(In general: In TR-FRET formats the signal depends on donor and acceptor labels being close together.)

T1 sequence (Q06187 whole entry): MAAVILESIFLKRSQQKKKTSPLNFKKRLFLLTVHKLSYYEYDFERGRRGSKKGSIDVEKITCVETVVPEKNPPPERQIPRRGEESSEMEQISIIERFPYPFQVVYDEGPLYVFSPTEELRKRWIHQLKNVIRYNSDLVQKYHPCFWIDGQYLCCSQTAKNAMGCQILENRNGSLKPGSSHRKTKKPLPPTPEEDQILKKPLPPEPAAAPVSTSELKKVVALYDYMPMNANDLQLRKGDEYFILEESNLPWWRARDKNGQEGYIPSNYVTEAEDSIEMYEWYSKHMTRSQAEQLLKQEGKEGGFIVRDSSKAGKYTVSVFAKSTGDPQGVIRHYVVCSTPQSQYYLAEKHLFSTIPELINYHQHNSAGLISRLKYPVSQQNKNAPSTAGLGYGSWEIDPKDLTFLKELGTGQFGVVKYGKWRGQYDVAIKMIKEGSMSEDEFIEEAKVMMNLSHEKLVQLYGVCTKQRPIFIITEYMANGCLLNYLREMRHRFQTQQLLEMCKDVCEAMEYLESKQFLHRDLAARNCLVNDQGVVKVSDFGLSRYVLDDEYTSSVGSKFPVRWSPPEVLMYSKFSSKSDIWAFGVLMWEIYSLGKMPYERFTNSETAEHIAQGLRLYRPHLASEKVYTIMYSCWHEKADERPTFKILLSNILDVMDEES

By IC50 is commonly meant the concentration needed to halve the response being measured. A higher IC50 goes with lower potency. One may read the DC50 as the concentration at which degradation of the target reaches its halfway point. Read a low DC50 as degradation at low concentration. `Cc1cc(-c2ncnc3[nH]c(-c4ccc(C5(O)CCN(CC6CCN(c7ccc(N8CCC(=O)NC8=O)cc7)CC6)C5)cn4)cc23)ccc1[C@@H](C)NC(=O)c1nc(C(C)(C)C)no1` (stereo partly drawn) [Example 180, 3-(tert-butyl)-N-((1R)-1-(4-(6-(5-(1-((1-(4-(2,4-dioxotetrahydropyrimidin-1(2H)-yl)phenyl)piperidin-4-yl)methyl)-3-hydroxypyrrolidin-3-yl)pyridin-2-yl)-7H-pyrrolo[2,3-d]pyrimidin-4-yl)-2-methylphenyl)ethyl)-1,2,4-oxadiazole-5-carboxamide] returned a concentration for half-maximal inhibition (IC50) in the assay on HEK-293 cells of 0.985 µM. This molecule came in with a DC50 at BTK of 0.52 nM.

On to `Cc1cc(-c2ncnc3[nH]c(-c4ccc(N5CCN(Cc6ccc(C7CCC(=O)NC7=O)c(F)c6)CC5)cn4)cc23)ccc1[C@@H](C)NC(=O)c1nc(C(C)(C)C)no1` (stereo partly drawn) [Example 181, 3-(tert-butyl)-N-((1R)-1-(4-(6-(5-(4-(4-(2,6-dioxopiperidin-3-yl)-3-fluorobenzyl)piperazin-1-yl)pyridin-2-yl)-7H-pyrrolo[2,3-d]pyrimidin-4-yl)-2-methylphenyl)ethyl)-1,2,4-oxadiazole-5-carboxamide], for which the IC50 in the assay with HEK-293 cells was > 10 µM. Besides, at BTK, it took 1.58 nM to reach half-maximal degradation (DC50).

`Cc1cc(-c2ncnc3[nH]c(-c4ccc(C5CC6CCC(C5)N6CC5CCN(c6ccc(N7CCC(=O)NC7=O)cn6)CC5)cc4)cc23)ccc1[C@@H](C)NC(=O)c1nc(C(C)(C)C)no1` (stereo partly drawn) [Example 182, 3-(tert-butyl)-N-((1R)-1-(4-(6-(4-(8-((1-(5-(2,4-dioxotetrahydropyrimidin-1(2H)-yl)pyridin-2-yl)piperidin-4-yl)methyl)-8-azabicyclo[3.2.1]octan-3-yl)phenyl)-7H-pyrrolo[2,3-d]pyrimidin-4-yl)-2-methylphenyl)ethyl)-1,2,4-oxadiazole-5-carboxamide]: 2.22 µM corresponded to half-maximal inhibition in the assay on HEK-293 cells (IC50). On BTK, the DC50 worked out at 1.34 nM.

`Cc1cc(-c2ncnc3[nH]c(-c4ccc(C5CC6CCC(C5)N6CC5CCN(c6ccc(N7CCC(=O)NC7=O)cc6)CC5)cc4)cc23)ccc1[C@@H](C)NC(=O)c1nc(C(C)(C)C)no1` (stereo partly drawn) [Example 183, 3-(tert-butyl)-N-((1R)-1-(4-(6-(4-(8-((1-(4-(2,4-dioxotetrahydropyrimidin-1(2H)-yl)phenyl)piperidin-4-yl)methyl)-8-azabicyclo[3.2.1]octan-3-yl)phenyl)-7H-pyrrolo[2,3-d]pyrimidin-4-yl)-2-methylphenyl)ethyl)-1,2,4-oxadiazole-5-carboxamide] yielded an IC50 with HEK-293 cells of 1.04 µM. Also, at BTK, the DC50 is 1.4 nM.

Take `Cc1cc(-c2ncnc3[nH]c(-c4ccc(N5CCN(CC6CCN(c7ccc(N8CC(=O)NC8=O)cc7)CC6)CC5)cn4)cc23)ccc1[C@@H](C)NC(=O)c1nc(C(C)(C)C)no1` [Example 184, (R)-3-(tert-butyl)-N-(1-(4-(6-(5-(4-((1-(4-(2,4-dioxoimidazolidin-1-yl)phenyl)piperidin-4-yl)methyl)piperazin-1-yl)pyridin-2-yl)-7H-pyrrolo[2,3-d]pyrimidin-4-yl)-2-methylphenyl)ethyl)-1,2,4-oxadiazole-5-carboxamide]: the IC50 in the assay on HEK-293 cells was > 10 µM. On BTK, this molecule showed a DC50 of 2.7 nM.

On to `Cc1cc(-c2ncnc3[nH]c(-c4ccc(N5CCN(CC6CCN(c7ccc(N8CCC(=O)NC8=O)cc7)CC6)CC5)cn4)cc23)ccc1[C@@H](C)NC(=O)c1nnc(C(C)(C)C)o1` [Example 185, (R)-5-(tert-butyl)-N-(1-(4-(6-(5-(4-((1-(4-(2,4-dioxotetrahydropyrimidin-1(2H)-yl)phenyl)piperidin-4-yl)methyl)piperazin-1-yl)pyridin-2-yl)-7H-pyrrolo[2,3-d]pyrimidin-4-yl)-2-methylphenyl)ethyl)-1,3,4-oxadiazole-2-carboxamide], for which, in the assay with HEK-293 cells, the IC50 is > 10 µM. The molecule also came in with a DC50 at BTK of 0.5 nM.

On to `Cc1cc(-c2ncnc3[nH]c(-c4ncc(N5CCN(CC6CCN(c7ccc(N8CCC(=O)NC8=O)cc7)CC6)CC5)s4)cc23)ccc1[C@@H](C)NC(=O)c1nc(C(C)(C)C)no1` [Example 186, (R)-3-(tert-butyl)-N-(1-(4-(6-(5-(4-((1-(4-(2,4-dioxotetrahydropyrimidin-1(2H)-yl)phenyl)piperidin-4-yl)methyl)piperazin-1-yl)thiazol-2-yl)-7H-pyrrolo[2,3-d]pyrimidin-4-yl)-2-methylphenyl)ethyl)-1,2,4-oxadiazole-5-carboxamide], for which, in the assay with HEK-293 cells, the IC50 was > 10 µM. This molecule gave a DC50 on BTK of 1.04 nM.

Consider `Cc1cc(-c2ncnc3[nH]c(-c4ccc(N5CCN(CC6CCN(c7ccc(-n8ccc(=O)[nH]c8=O)cc7)CC6)CC5)nc4)cc23)ccc1[C@@H](C)NC(=O)c1nc(C(C)(C)C)no1` [Example 187, (R)-3-(tert-butyl)-N-(1-(4-(6-(6-(4-((1-(4-(2,4-dioxo-3,4-dihydropyrimidin-1(2H)-yl)phenyl)piperidin-4-yl)methyl)piperazin-1-yl)pyridin-3-yl)-7H-pyrrolo[2,3-d]pyrimidin-4-yl)-2-methylphenyl)ethyl)-1,2,4-oxadiazole-5-carboxamide], for which the IC50 in the assay with HEK-293 cells was > 10 µM. On BTK, this molecule had a DC50 of 2.65 nM.

Take `Cc1cc(-c2ncnc3[nH]c(-c4ccc(N5CCN([C@H]6C[C@@H](c7ccc(N[C@H]8CCC(=O)NC8=O)cc7)C6)CC5)nc4)cc23)ccc1[C@@H](C)NC(=O)c1nc(C(C)(C)C)no1` [Example 188, 3-(tert-butyl)-N-((R)-1-(4-(6-(6-(4-((1R,3s)-3-(4-(((S)-2,6-dioxopiperidin-3-yl)amino)phenyl)cyclobutyl)piperazin-1-yl)pyridin-3-yl)-7H-pyrrolo[2,3-d]pyrimidin-4-yl)-2-methylphenyl)ethyl)-1,2,4-oxadiazole-5-carboxamide]: the IC50 with HEK-293 cells is > 10 µM. In addition, at BTK, it took 3.03 nM to reach half-maximal degradation (DC50).

On to `Cc1cc(-c2ncnc3[nH]c(-c4ccc(N5CCN([C@H]6C[C@@H](c7ccc(N[C@@H]8CCC(=O)NC8=O)cc7)C6)CC5)nc4)cc23)ccc1[C@@H](C)NC(=O)c1nc(C(C)(C)C)no1` [Example 189, 3-(tert-butyl)-N-((R)-1-(4-(6-(6-(4-((1S,3s)-3-(4-(((R)-2,6-dioxopiperidin-3-yl)amino)phenyl)cyclobutyl)piperazin-1-yl)pyridin-3-yl)-7H-pyrrolo[2,3-d]pyrimidin-4-yl)-2-methylphenyl)ethyl)-1,2,4-oxadiazole-5-carboxamide], for which, in the assay with HEK-293 cells, the IC50 was > 10 µM. Moreover, the 50% degradation concentration (DC50) at BTK was > 2000 nM.

Turning to `Cc1cc(-c2ncnc3[nH]c(-c4ccc(N5CCN(CC6CCN(c7ccc(N8CCC(=O)NC8=O)cc7)CC6)C(=O)C5)cc4)cc23)ccc1[C@@H](C)NC(=O)c1nc(C(C)(C)C)no1` [Example 190, (R)-3-(tert-butyl)-N-(1-(4-(6-(4-(4-((1-(4-(2,4-dioxotetrahydropyrimidin-1(2H)-yl)phenyl)piperidin-4-yl)methyl)-3-oxopiperazin-1-yl)phenyl)-7H-pyrrolo[2,3-d]pyrimidin-4-yl)-2-methylphenyl)ethyl)-1,2,4-oxadiazole-5-carboxamide], the IC50 in the assay with HEK-293 cells is > 10 µM. This molecule displayed a DC50 on BTK of 0.28 nM.

Regarding `Cc1cc(-c2ncnc3[nH]c(-c4ccc(N5CCN([C@H]6C[C@@H](c7ccc(O[C@H]8CCC(=O)NC8=O)cc7)C6)CC5)nc4)cc23)ccc1[C@@H](C)NC(=O)c1nc(C(C)(C)C)no1` [Example 191, 3-(tert-butyl)-N-((R)-1-(4-(6-(6-(4-((1R,3s)-3-(4-(((S)-2,6-dioxopiperidin-3-yl)oxy)phenyl)cyclobutyl)piperazin-1-yl)pyridin-3-yl)-7H-pyrrolo[2,3-d]pyrimidin-4-yl)-2-methylphenyl)ethyl)-1,2,4-oxadiazole-5-carboxamide], the IC50 in the assay on HEK-293 cells is > 10 µM. At BTK, this molecule returned a DC50 of 1.59 nM.

For the molecule `Cc1cc(-c2ncnc3[nH]c(-c4ccc(N5CCN([C@H]6C[C@@H](c7ccc(O[C@@H]8CCC(=O)NC8=O)cc7)C6)CC5)nc4)cc23)ccc1[C@@H](C)NC(=O)c1nc(C(C)(C)C)no1` [Example 192, 3-(tert-butyl)-N-((R)-1-(4-(6-(6-(4-((1S,3s)-3-(4-(((R)-2,6-dioxopiperidin-3-yl)oxy)phenyl)cyclobutyl)piperazin-1-yl)pyridin-3-yl)-7H-pyrrolo[2,3-d]pyrimidin-4-yl)-2-methylphenyl)ethyl)-1,2,4-oxadiazole-5-carboxamide], the IC50 with HEK-293 cells is > 10 µM. In addition, the DC50 on BTK is > 2000 nM.
